Test results as given in patent US12100497B1, “Population-based immune rescue via herd immunity mediated by cells” (Channel Content Company LLC, priority 2023, dated 2024).

Experiments:
Covid [1] = assay: One year investigation at Prestige Home Health, vitamin D protocol, Covid positive tests; format: in vivo, human; conditions: target vitamin D level 60 ng/ml
Protocol: In order to test some of the concepts disclosed herein, a one year investigation was conducted to gather data where there was an objective of bringing participants to a target level of vitamin D of 60 ng/ml treated at home by staff at Prestige Home Health in Starr county, Texas and also residents of nursing homes. Data on patients and staff was provided by Yolanda Garza registered nurse (RN)/Director of Nursing (DON) on Sep. 19, 2022. For patients that followed the disclosed protocol, zero tested positive for Covid as compared to fifty-three patients who tested positive for Covid who were not on the protocol. During the same one year period, four staff members on the disclosed protocol tested positive for Covid compared to 83 staff members who tested positive who were not on the disclosed protocol. Prestige Home Health also provided portable humidifiers in homes of many of the patients treated at home. Little or no sensors were provided to determine the level of humidification. Retama Manor also tried to make indoor humidify viral safe inside their facility by including humidifiers again without sensors. Though the capacity of their humidifiers was subpar, indoor humidity in all likelihood contributed to the facility's remarkable overall success. Only one patient at Retama Manor whose Vitamin D level was in the viral safe range tested positive during the 15 month study period.

Covid [2] = assay: Retama Manor nursing home 15 month study, vitamin D protocol, Covid positive tests; format: in vivo, human
[3] = test system: acute respiratory illness; conditions: higher doses of vitamin D; patients studied for a year; cited from earlier work
[4] = vitamin D exposure over 10 years; cohort of 12,388 persons; cited from earlier work

## vitamin D
Covid [1]; 53 positive patients not on protocol
  patients on the disclosed protocol who tested positive for Covid: zero
Covid [1]; 83 positive staff not on protocol
  staff members on the disclosed protocol who tested positive for Covid: four
Covid [2]; Retama Manor versus the other two nursing homes in Rio Grande City
  Covid cases per staff member, less than the other two nursing homes: 45%
Covid [2]; Retama Manor, 15 month (six quarter) study period
  patients on vitamin D protocol / in viral safe range who tested positive for Covid: one
Covid [2]; their patients at all three nursing homes in Rio Grande City, study period
  Dr. Mussett's patients who tested positive for Covid: two
[3]
  reduction in acute respiratory illness: 40%
[4]
  lowering of the risk of dementia: 40%
